Source: ChEMBL document CHEMBL1143051, “Novel cationic lipophilic peptides for oligodeoxynucleotide delivery” (Bioorg Med Chem, 2007)
Square brackets hold non-standard residues; d marks the D form. Peptide text beside a SMILES is read from it. ξ: configuration not given here. ξGly(decyl) = CCCCCCCCCCC(N)C(=O)O

Tests used:
[1] = Apparent permeability across human Caco-2 cells; assay type: ADME, cell-based
[2] = Effect on transfection efficacy in human D407 cells assessed as reduction of hVEGF expression after 48 hrs by ELISA; assay type: functional
[3] = Inhibition of IL2 production in antigen stimulated mouse 2B4.11 T hybridoma cells at 10 uM; assay type: functional
[4] = Inhibition of IL2 production in antigen stimulated mouse 2B4.11 T hybridoma cells at 25 uM; assay type: functional
[5] = Inhibition of IL2 production in antigen stimulated mouse 2B4.11 T hybridoma cells at 5 uM; assay type: functional
[6] = Effect on transfection efficacy in human D407 cells assessed as reduction of hVEGF expression after 24 hrs by ELISA; assay type: functional
[7] = Toxicity assessed as induction of haemolysis in rat erythrocytes at 1 mM after 30 mins; assay type: cell-based, Erythrocyte; conditions: read-out: Activity
[8] = test system: T-cell; assay: Inhibition of activation of antigen stimulated mouse 2B4.11 T cells assessed as IL2 production; assay type: functional, cell-based

| Papp [1] | Structure (SMILES) | Inhibition [2] | Inhibition [3] | Inhibition [4] | Inhibition [5] | Inhibition [6] | hemolysis at 0.5 h, 1000 µM [7] | Activity [8] |
| --- | --- | --- | --- | --- | --- | --- | --- | --- |
| 0.042 ×10⁻⁶ cm/s | CC[C@H](C)[C@H](NC(=O)[C@H](CCCNC(=N)N)NC(=O)[C@H](CC(C)C)NC(=O)CN)C(=O)N[C@@H](CC(C)C)C(=O)N[C@@H](CC(C)C)C(=O)N[C@@H](CC(C)C)C(=O)N[C@@H](CCCCN)C(=O)N[C@H](C(=O)O)C(C)C (H-GLRILLLKV-OH) | 63% | 102.53% | 74.52% | 107% | 55% | < 2% |  |
| 0.555 ×10⁻⁶ cm/s | OC[C@@H](O)[C@@H](O)[C@H](O)[C@H](O)CO [MANNITOL] |  |  |  |  |  |  |  |
| 0.11 ×10⁻⁶ cm/s | CCCCCCCCCCC(N)C(=O)NCC(=O)N[C@@H](CC(C)C)C(=O)N[C@@H](CCCNC(=N)N)C(=O)N[C@H](C(=O)N[C@@H](CC(C)C)C(=O)N[C@@H](CC(C)C)C(=O)N[C@@H](CC(C)C)C(=O)N[C@@H](CCCCN)C(=O)N[C@H](C(=O)O)C(C)C)[C@@H](C)CC (stereo partly specified) (H-[ξGly(decyl)]GLRILLLKV-OH) | 76% | 48.13% | 81.17% | 105.7% | 70% | < 2% | Dose-dependent effect |
